Laboratory results published in patent US20260234144A1 (TAY THERAPEUTICS LIMITED, priority 2023, published 2026).

System: R223X stop codon in the mutated luciferase gene, ADXC8 luciferase reporter cell line
Assay: cells
Assay type: cell-based
Details: ADXC8 cells, 24 hours; for Emax / EC (100% of 200 uM G418 response): 24 h; for Emax: read-out: Fold Over Control, maximum fold response relative to 200 μM G418; for EC (100% of 200 uM G418 response): read-out: pC100%, negative logarithm of the concentration giving the same response as 200 μM G418; for Fold Over Control: maximum fold response relative to 200 μM G418; for pC100%: negative logarithm of the concentration giving the same response as 200 μM G418

Compound | Emax [%] | EC (100% of 200 uM G418 response) [µM] | Fold Over Control | pC100%
Cc1cc(C)c2c(N)nc(NCC(O)CN3CCCCC3)nc2n1 (stereo not drawn) [Example 642] | 100 to 3000 | 10 to 100 | – | –
Cc1cc(C)c2c(N)nc(NCCN3Cc4ccccc4C3)nc2n1 [Example 37, N^2-(2-(isoindolin-2-yl)ethyl)-5,7-dimethylpyrido[2,3-d]pyrimidine-2,4-diamine] | – | 10 to 100 | – | –
Cc1cc(C)c2c(N)nc(NC3CC4CNCC4C3)nc2n1 (stereo not drawn) [Example 205] | 100 to 3000 | 1 to 10 | – | –
C=C(C)c1ccc2c(N)nc(NC3CCN(C)CC3)nc2n1 [Example 238, N^2-(1-methylpiperidin-4-yl)-7-(prop-1-en-2-yl) pyrido[2,3-d]pyrimidine-2,4-diamine] | 0 to 100 | > 31.6 | – | –
Cc1c2ccccc2nc2nc(NC3CCN(C)CC3)nc(N)c12 [Example 10, 5-methyl-N^2-(1-methylpiperidin-4-yl)pyrimido[4,5-b]quinoline-2,4-diamine] | 100 to 3000 | 1 to 10 | – | –
CN1CCC(Nc2nc(N)c3c(n2)nc(-c2ccccc2)c2ccccc23)CC1 [Example 31, N^3-(1-methylpiperidin-4-yl)-6-phenylpyrimido[4,5-c]isoquinoline-1,3-diamine] | 100 to 3000 | 1 to 10 | – | –
Cc1cc(C)c2c(N)nc(NC3(CO)CCNCC3)nc2n1 [Example 207] | 0 to 100 | > 31.6 | – | –
Cc1cc(C)c2c(N)nc(NC[C@@H]3CN(C(=O)OC(C)(C)C)CCO3)nc2n1 [Example 136] | 0 to 100 | > 100 | – | –
[2H]C([2H])([2H])Nc1nc(NC2CCN(C([2H])([2H])[2H])CC2)nc2nc(C)cc(C)c12 [Example 512, 5,7-dimethyl-N^4-(methyl-da)-N^2-(1-(methyl-da)piperidin-4-yl)pyrido[2,3-d]pyrimidine-2,4-diamine] | – | 0.1 to 1 | – | –
Cc1cc(C)c2c(N)nc(NCC3CN(C)CCO3)nc2n1 (stereo not drawn) [Example 152] | 100 to 3000 | 10 to 100 | – | –
Cc1cc(C)c2c(N)nc(N[C@@H]3CNC[C@H]3F)nc2n1 [Example 297] | 100 to 3000 | 10 to 100 | – | –
Cc1cc(C)c2c(N)nc(NCCCN3CC4(CCCO4)C3)nc2n1 [Example 192] | 0 to 100 | > 31.6 | – | –
Cc1cc(C)c2c(N)nc(N[C@H]3CCN(Cc4ccc(C#N)cc4)C[C@@H]3F)nc2n1 [Example 574] | 100 to 3000 | 10 to 100 | – | –
CNc1nc(N[C@H]2CCCN(C)C2)nc2nc(C)cc(C)c12 [Example 384] | 100 to 3000 | 1 to 10 | – | –
CC(=O)Nc1cnccc1CN1CCC(Nc2nc(N)c3c(C)cc(C)nc3n2)CC1 [Example 560] | 100 to 3000 | 1 to 10 | – | –
Cc1nc2nc(NC3CCN(Cc4cc(F)ccc4O)CC3)nc(N)c2c2c1CCC2 [Example 535] | 100 to 3000 | 0.1 to 1 | – | –
Cc1cc(C)c2c(N3CCOCC3)nc(NC3CCN(C)CC3)nc2n1 [Example 266] | 0 to 100 | > 100 | – | –
Cc1cc(C)c2c(N)nc(NCCCN3CCCCC3C)nc2n1 (stereo not drawn) [Example 150] | 100 to 3000 | 1 to 10 | – | –
CNc1nc(N[C@@H]2CN(C)C[C@H]2C)nc2nc(C)cc(C)c12 [Example 378] | 100 to 3000 | 1 to 10 | – | –
Cc1cc(C)c2c(N)nc(NCCN3CC(F)C3)nc2n1 [Example 163] | 100 to 3000 | 10 to 100 | – | –

Compound | Emax [%] | EC (100% of 200 uM G418 response) [µM] | Fold Over Control | pC100%
CNC(=O)c1cccc(-c2ccc3c(N)nc(NC4CCN(C)CC4)nc3n2)c1 [Example 80] | 100 to 3000 | 10 to 100 | – | –
CNc1nc(N[C@H]2CN(C)C[C@H]2F)nc2nc(C)c(Cl)c(C)c12 [Example 614] | – | 1 to 10 | – | –
CNCc1cccc(-c2ccc3c(N)nc(NC4CCN(C)CC4)nc3n2)c1 [Example 109] | 100 to 3000 | 10 to 100 | – | –
Cc1cc(C)c2c(N)nc(NC3CCN(Cc4cc(F)cc(F)c4O)CC3)nc2n1 [Example 569] | 100 to 3000 | 1 to 10 | – | –
CNc1nc(N[C@H]2CN[C@@H](COC)C2)nc2nc(C)cc(C)c12 [Example 406] | – | 1 to 10 | – | –
CNc1nc(N[C@H]2CNC[C@@H]2F)nc2nc(C)cc(C)c12 [Example 334] | – | 1 to 10 | – | –
CN1CCC(Nc2nc(N)c3ccc(-c4ccc(S(C)(=O)=O)cc4)nc3n2)CC1 [Example 54] | 0 to 100 | > 100 | – | –
CNc1nc(N[C@H]2CNC[C@@H]2O)nc2nc(C)c3c(c12)CCC3 [Example 344] | – | 0.01 to 0.1 | – | –
Cc1cc(C)c2c(N)nc(NCCN3CC4(COC4)C3)nc2n1 [Example 30, N^2-(2-(2-oxa-6-azaspiro[3.3]heptan-6-yl)ethyl)-5,7-dimethylpyrido[2,3-d]pyrimidine-2,4-diamine] | 100 to 3000 | 10 to 100 | – | –
CN1CCC(Nc2nc(N)c3ccc(-c4cccc(CN)c4)nc3n2)CC1 [Example 74] | – | 1 to 10 | – | –
CNc1nc(N[C@H]2CN(C)C[C@@H]2F)nc2nc(C)cc(C)c12 [Example 339] | 100 to 3000 | 1 to 10 | – | –
Cc1cc(C)c2c(N)nc(NC3CCN(Cc4ccccc4)CC3)nc2n1 [Example 158] | 100 to 3000 | 0.1 to 1 | – | –
Cc1cc(C)c2c(N)nc(NC3CCN(CC(F)(F)F)CC3)nc2n1 [Example 178] | 0 to 100 | > 100 | – | –
Cc1cc(C)c2c(N)nc(NC3CCN(Cc4ccc(C(F)F)cc4)CC3)nc2n1 [Example 485] | 100 to 3000 | 1 to 10 | – | –
Cc1cc(C)c2c(N)nc(NC3CCN(Cc4ccc(C#N)cc4Br)CC3)nc2n1 [Example 561] | 100 to 3000 | 1 to 10 | – | –
CNc1cc(N[C@H]2CN(C)C[C@@H]2F)nc2nc3c(c(C)c12)CCC3 [Example 634] | 100 to 3000 | 0.1 to 1 | – | –
CN1CCC(Nc2nc(N)c3ccc(-c4cccc(CO)c4)nc3n2)CC1 [Example 92] | 100 to 3000 | 10 to 100 | – | –
CNc1ccnc2nc(NC3CCN(C)CC3)nc(N)c12 [Example 247] | 0 to 100 | > 100 | – | –
Cc1cc(C)c2c(N)nc(NC3CCN(Cc4c(C)cccc4O)CC3)nc2n1 [Example 538] | 100 to 3000 | 0.1 to 1 | – | –
CCNc1nc(N[C@]23C[C@H]2CN(C)C3)nc2nc(C)cc(C)c12 [Example 632] | 100 to 3000 | 0.1 to 1 | – | –

Compound | Emax [%] | EC (100% of 200 uM G418 response) [µM] | Fold Over Control | pC100%
Cc1cc(C)c2c(N)nc(NC3CCN(Cc4cscn4)CC3)nc2n1 [Example 461] | 100 to 3000 | 1 to 10 | – | –
CNc1nc(NC2CNCC2(F)F)nc2nc(C)cc(C)c12 (single isomer, unassigned) [Example 438] | – | – | # (Fold over Ctrl ≥ 0 ≤ 1) | * (pC100 ≤ 4.5)
CNc1nc(NC2CC3CCC2N3)nc2nc(C)cc(C)c12 (stereo not drawn) [Example 517, N^2-(-7-azabicyclo[2.2.1]heptan-2-yl)-N^4,5,7-trimethylpyrido[2,3-d]pyrimidine-2,4-diamine] | 100 to 3000 | – | – | ++ (pC100% > 5.0 ≤ 6.0)
CCN1CCC(Nc2nc(N)c3c(C)cc(C)nc3n2)CC1 [Example 213] | 100 to 3000 | 1 to 10 | – | –
CC(O)c1ccnc2nc(NC3CCN(C)CC3)nc(N)c12 (stereo not drawn) [Example 308] | 0 to 100 | > 100 | – | –
Cc1cc(C)c2c(N)nc(N[C@@H]3CCNC[C@H]3O)nc2n1 [Example 180] | 100 to 3000 | 1 to 10 | – | –
Cc1c2c(nc3nc(NC4CCN(Cc5cccc(S(N)(=O)=O)c5)CC4)nc(N)c13)CCC2 [Example 665] | 100 to 3000 | 1 to 10 | – | –
CNc1nc(NC2C3CCC2CN(C(C)C)C3)nc2nc(C)cc(C)c12 (single isomer, unassigned) [Example 436] | – | – | ## (Fold over Ctrl > 1 ≤ 30) | + (pC100% > 4.0 ≤ 5.0)
CNc1nc(NC2CCNCC2)nc2nc(C)cc(C)c12 [Example 588] | – | 0.1 to 1 | – | –
CCN1C[C@@H](F)[C@@H](Nc2nc(NC)c3c(C)cc(C)nc3n2)C1 [Example 628] | – | 1 to 10 | – | –
CC#Cc1ccnc2nc(NC3CCN(C)CC3)nc(N)c12 [Example 251, N^2-(1-methylpiperidin-4-yl)-5-(prop-1-yn-1-yl)pyrido[2,3-d]pyrimidine-2,4-diamine] | 100 to 3000 | 10 to 100 | – | –
Cc1cc(C)c2c(NC(C)C)nc(NC3CCN(C)CC3)nc2n1 [Example 264] | 100 to 3000 | 1 to 10 | – | –
CNc1cc(C)c2c(NC)nc(N[C@@H]3CCN(C)C3)nc2n1 [Example 524, (R)—N^4,N^7,5-trimethyl-N^2-(1-methylpyrrolidin-3-yl)pyrido[2,3-d]pyrimidine-2,4,7-triamine] | 100 to 3000 | 1 to 10 | – | –
Cc1cc(C)c2c(N)nc(NCC3CNC3)nc2n1 [Example 199] | 0 to 100 | > 31.6 | – | –
CNc1nc(NCCCN2CCOCC2)nc2nc3c(c(C)c12)CCC3 [Example 296] | – | 0.1 to 1 | – | –
Cc1cc(C)c2c(N)nc(NCCN3CCC4(CCOCC4)C3)nc2n1 [Example 165] | 0 to 100 | > 31.6 | – | –
Cc1c2c(nc3nc(NC4CCN(Cc5ccc(B(O)O)cc5)CC4)nc(N)c13)CCC2 [Example 668] | 100 to 3000 | 1 to 10 | – | –
CN1CCC(Nc2nc(N)c3ccc(Cl)nc3n2)CC1 [Example 23, 7-chloro-N^2-(1-methylpiperidin-4-yl)pyrido[2,3-d]pyrimidine-2,4-diamine] | 100 to 3000 | 10 to 100 | – | –
CNc1nc(N[C@H]2CNC[C@@H]2F)nc2nc(C)c3c(c12)CCC3 [Example 346] | 100 to 3000 | 0.1 to 1 | – | –
